Structures can show the parent of a compound that is named as a salt. Where two headings read alike, the source gives them in different places.
Assays:
MMP-1 = target: T1, MMP-1 (Homo sapiens, UniProt P03956); assay: In vitro MMP inhibition, Ki determination (fluorogenic substrate II); format: biochemical
T1 construct: made in house; host or cells: MMP-1-transfected HT-1080 cells (spent media)
T1 sequence (P03956 100-469): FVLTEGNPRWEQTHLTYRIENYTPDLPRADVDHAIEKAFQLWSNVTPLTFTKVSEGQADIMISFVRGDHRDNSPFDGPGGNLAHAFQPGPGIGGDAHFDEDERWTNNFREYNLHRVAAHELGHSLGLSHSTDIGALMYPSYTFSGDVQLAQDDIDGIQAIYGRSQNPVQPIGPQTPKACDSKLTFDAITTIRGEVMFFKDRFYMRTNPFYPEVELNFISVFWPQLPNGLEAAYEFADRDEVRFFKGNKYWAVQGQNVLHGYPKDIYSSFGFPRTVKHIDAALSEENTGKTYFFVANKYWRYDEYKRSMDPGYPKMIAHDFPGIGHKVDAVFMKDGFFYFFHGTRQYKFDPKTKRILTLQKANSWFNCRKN
Procedure: (§1) Several hydroxamic acids and salts thereof were analyzed in in vitro assays to determine their ability to inhibit the MMP cleavage of peptide substrates. […] and IC50 constants were calculated from the assayed hydroxamic acid-MMP interactions.
(§2) Human recombinant MMP-1, MMP-2, MMP-9, MMP-13, and MMP-14 were used in this assay. All enzymes were prepared in Assignee's laboratories following usual laboratory procedures. Protocols for the preparation and use of these enzymes are available in the scientific literature. See, e.g., Enzyme Nomenclature (Academic Press, San Diego, Calif., 1992) (and the citations therein). See also, Freije et al., “Molecular cloning and expression of collagenase-3, a novel human matrix metalloproteinase produced by breast carcinomas,” J Biol. Chem., 269(24), 16766-16773 (1994).
The MMP-1 proenzyme was purified from the spent media of MMP-1-transfected HT-1080 cells provided by Dr. Harold Welgus of Washington University (St. Louis, Mo.). The protein was purified on a zinc chelating column.
(§3) All MMPs were activated using 4-aminophenylmercuric acetate (“APMA”, Sigma Chemical, St. Louis, Mo.) or trypsin. MMP-9 also was activated using human recombinant MMP-3 (purified in Assignee's laboratory following standard cloning and purification techniques).
(§4) Two fluorogenic, methoxycoumarin-containing polypeptide substrates were used in the MMP inhibition assays: [drawing 427] Here, “Dpa” is 3-(2,4-dinitrophenyl)-L-2,3-diaminopropionyl group, and “MCA” is 7-methoxycoumarin-4-yl acetyl. Substrate (I) was purchased from Baychem (Redwood City, Calif.), and substrate II was prepared Assignee's laboratory. Substrate I was used in the IC50 determination assays, while substrate II was used in the Ki determination assays. In the absence of MMP inhibitory activity, either substrate is cleaved at the Gly-Leu peptide bond. This cleavage separates the highly fluorogenic peptide from the 2,4-dinitrophenyl quencher, thus resulting in increase of fluorescent intensity.
(§5) The stock solutions of the assayed hydroxamic acids (or salts thereof) were prepared in 1% dimethyl sulfoxide (DMSO). These stock solutions were diluted in Buffer A (100 mM Tris-HCl, 100 mM NaCl, 10 mM CaCl2, 0.05% polyoxyethylene 23 lauryl ether, pH 7.5) to obtain solutions with different hydroxamic acid concentrations, i.e., assay solutions with different concentrations of the assayed MMP inhibitory compound. The experiment controls contained the same amount of Buffer A/DMSO as the assayed sample, but contained no hydroxamic acid (or salt thereof).
The assays from which the Ki determinations were made were performed as follows. The assayed hydroxamic acid samples were incubated in separate wells of untreated white polystyrene plates (Nunc Nalgene International, Rochester, N.Y.), and analyzed on a Tecan SpectraFlour Plus plate reader. The excitation wavelength was 330 nm, and the emission wavelength—420 nm. All samples (assayed hydroxamic acids and controls) were incubated in separate plate wells at room temperature for 1 hr in the presence of 4 μM of MMP substrate (II). In the absence of MMP inhibitory activity, substrate II was cleaved at the Gly-Leu bond resulting in an increase of relative fluorescence. Inhibition was observed as a reduced rate of this increase in relative fluorescence. The various hydroxamic acids were analyzed using a single low enzyme concentration with a single substrate concentration fixed at or below the Km. This protocol is a modification of method by Knight et al., FEBS Lett., 296(3), 263-266 (1992). Apparent inhibitory constants were determined by non-linear regression of reaction velocity as a function of inhibitor and enzyme concentration using Morrison's equation, as described by Kuzmic, Anal. Biochem. 286, 45-50 (2000). […] Since the substrate concentration was chosen to be at or below the Km, the apparent Ki's from this analysis were reported as Ki's without correction for the influence of substrate.

MMP-13 = target: T2, MMP-13 (Homo sapiens, UniProt P45452); assay: as above; format: biochemical
T2 construct: made in house; host or cells: baculovirus / insect cells
Procedure: as §1, §2
The MMP-13 was obtained as a proenzyme from a full-length cDNA clone using baculovirus, as described by V. A. Luckow, “Insect Cell Expression Technology,” Protein Engineering: Principles and Practice, pp. 183-218 (edited by J. L. Cleland et al., Wiley-Liss, Inc., 1996). The expressed proenzyme was first purified over a heparin agarose column, and then over a chelating zinc chloride column. The proenzyme was then activated by APMA for use in the assay. […] See also, O'Reilly et al, Baculovirus Expression Vectors: A Laboratory Manual (W.H. Freeman and Co., New York, N.Y., 1992). See also, King et al., The Baculovirus Expression System: A Laboratory Guide (Chapman & Hall, London, England, 1992).
as §3, §4, §5
The assays from which the Ki determinations were made were performed as follows. The assayed hydroxamic acid samples were incubated in separate wells of untreated white polystyrene plates (Nunc Nalgene International, Rochester, N.Y.), and analyzed on a Tecan SpectraFlour Plus plate reader. The excitation wavelength was 330 nm, and the emission wavelength—420 nm. All samples (assayed hydroxamic acids and controls) were incubated in separate plate wells at room temperature for 1 hr in the presence of 4 μM of MMP substrate (II). In the absence of MMP inhibitory activity, substrate II was cleaved at the Gly-Leu bond resulting in an increase of relative fluorescence. Inhibition was observed as a reduced rate of this increase in relative fluorescence. The various hydroxamic acids were analyzed using a single low enzyme concentration with a single substrate concentration fixed at or below the Km.

[1] = human recombinant enzyme, 4 μM substrate II, room temperature, 1 hr, read-out: MMP-1 Ki
[2] = human recombinant enzyme, 4 μM substrate II, room temperature, 1 hr, read-out: MMP-13 Ki
[3] = value not in parenthesis, read-out: MMP-1 Ki
[4] = value not in parenthesis, read-out: MMP-13 Ki
[5] = MMP-1 Ki, value not in parenthesis
[6] = MMP-13 Ki, value not in parenthesis

| SMILES | Ki (MMP-1; [1]) | Ki (MMP-13; [2]) | Ki (MMP-1; [3]) | Ki (MMP-13; [4]) | also measured |
| --- | --- | --- | --- | --- | --- |
| O=C(NO)C1(S(=O)(=O)N2CCN(c3ccc(CCC(F)(F)C(F)(F)F)cc3)CC2)CCOCC1 [Example 17, N-hydroxy-4-({4-[4-(3,3,4,4,4-pentafluorobutyl)phenyl]piperazin-1-yl}sulfonyl)tetrahydro-2H-pyran-4-carboxamide Hydrochloride] | > 10000 nM | 0.328 nM |  |  |  |
| O=C(NO)C1(S(=O)(=O)N2CCC(c3ccc(CCC(F)(F)C(F)(F)F)cc3)CC2)CCOCC1 [Example 18, N-hydroxy-4-({4-[4-(3,3,4,4,4-pentafluorobutyl)phenyl]piperidin-1-yl}sulfonyl)tetrahydro-2H-pyran-4-carboxamide] | 7350 nM | 0.444 nM |  |  |  |
| CCCCc1ccc(C2CCN(S(=O)(=O)C3(C(=O)NO)CCOCC3)CC2)s1 [Example 19, 4-{[4-(5-butylthien-2-yl)piperidin-1-yl]sulfonyl}-N-hydroxytetrahydro-2H-pyran-4-carboxamide] | > 10000 nM | 5.47 nM |  |  |  |
| COCCN1CCC(C(=O)NO)(S(=O)(=O)N2CCC(c3ccc(OCCCC(F)(F)F)cc3)CC2)CC1 [Example 20, N-hydroxy-1-(2-methoxyethyl)-4-({4-[4-(4,4,4-trifluorobutoxy)phenyl]piperidin-1-yl}sulfonyl)piperidine-4-carboxamide Hydrochloride] | > 10000 nM | 0.15 nM |  |  |  |
| CCCCCc1ccc(N2CCN(S(=O)(=O)C3(C(=O)NO)CCN(C(=O)C(F)(F)F)CC3)CC2)cc1 [Example 21, N-hydroxy-4-{[4-(4-pentylphenyl)piperazin-1-yl]sulfonyl}-1-(trifluoroacetyl)piperidine-4-carboxamide Hydrochloride] | > 10000 nM | 6.17 nM |  |  |  |
| CCCCCc1ccc(N2CCN(S(=O)(=O)C3(C(=O)NO)CCN(CC)CC3)CC2)cc1F [Example 22, 1-ethyl-4-{[4-(3-fluoro-4-pentylphenyl)piperazin-1-yl]sulfonyl}-N-hydroxypiperidine-4-carboxamine Hydrochloride] | > 10000 nM | 2.78 nM |  |  |  |
| CCCCCc1ccc(N2CCN(S(=O)(=O)C3(C(=O)NO)CCOCC3)CC2)c(F)c1 [Example 23, 4-{[4-(2-fluoro-4-pentylphenyl)piperazin-1-yl]sulfonyl}-N-hydroxytetrahydro-2H-pyran-4-carboxamide Hydrochloride] | > 10000 nM | 4.17 nM |  |  |  |
| CCCCc1ccc(C2CCN(S(=O)(=O)C3(C(=O)NO)CCN(C4CC4)CC3)CC2)nc1 [Example 24, 4-{[4-(5-butylpyridin-2-yl)piperidin-1-yl]sulfonyl}-1-cyclopropyl-N-hydroxypiperidine-4-carboxamide Hydrochloride] | > 10000 nM | 0.54 nM |  |  |  |
| O=C(NO)C1(S(=O)(=O)N2CCC(c3ccc(OCC(F)(F)F)cc3)CC2)CCN(C2CC2)CC1 [Example 25, 1-cyclopropyl-N-hydroxy-4-({4-[4-(2,2,2-trifluoroethoxy)phenyl]piperidin-1-yl}sulfonyl)piperidine-4-carboxamide Hydrochloride] | > 10000 nM | 0.97 nM |  |  |  |
| CCCCCCCCC1CCN(S(=O)(=O)C2(C(=O)NO)CCOCC2)CC1 [Example 26, 4-(4-octyl-piperidine-1-sulfonyl)-tetrahydro-pyran-4-carboxylic Acid Hydroxyamide] | 2970 nM | 0.51 nM |  |  |  |
| O=C(NO)C1(S(=O)(=O)N2CCC(c3cnc(OCC(F)(F)C(F)(F)F)cn3)CC2)CCOCC1 [Example 27] | 4780 nM | 0.5 nM |  |  |  |
| CCCCCc1cnc(N2CCN(S(=O)(=O)C3(C(=O)NO)CCOCC3)CC2)s1 [Example 56] |  |  | > 10000 nM | 1.74 nM |  |
| O=C(NO)C1(S(=O)(=O)N2CCN(c3ccc(-c4ccc(Cl)cc4)cn3)CC2)CCOCC1 [Example 60] |  |  | 555 nM | 0.32 nM |  |
| O=C(NO)C1(S(=O)(=O)N2CCN(c3ccc(COCC(F)(F)C(F)(F)C(F)(F)C(F)F)cc3)CC2)CCOCC1 [Example 68] |  |  |  |  | Ki (MMP-1; [5]): > 10000 nM; Ki (MMP-13; [6]): 1.85 nM |
| O=C(NO)C1(S(=O)(=O)N2CCN(c3ccc(COCC(F)(F)C(F)(F)C(F)(F)F)cc3)CC2)CCOCC1 [Example 69] |  |  |  |  | Ki (MMP-1; [5]): > 10000 nM; Ki (MMP-13; [6]): 2.11 nM |
| C=CCCOC(=O)N1CCC(C(=O)NO)(S(=O)(=O)N2CCN(c3ccc(OCCCC)cc3)CC2)CC1 [Example 101] |  |  | > 10000 nM | 0.92 nM |  |
| COCCN1CCC(C(=O)NO)(S(=O)(=O)N2CCN(c3ccc(OCCCC(F)(F)F)cc3F)CC2)CC1 [Example 102] |  |  | > 10000 nM | 0.19 nM |  |
| O=C(NO)C1(S(=O)(=O)N2CCN(c3ncc(Br)cn3)CC2)CCOCC1 [Example 103] |  |  | 686 nM | 3.48 nM |  |
| O=C(NO)C1(S(=O)(=O)N2CCN(c3ncc(Br)cn3)CC2)CCOCC1 [Example 104] |  |  | 835 nM | 3.55 nM |  |
| O=C(NO)C1(S(=O)(=O)N2CCN(c3ncccn3)CC2)CCOCC1 [Example 106] |  |  | 1470 nM | 27.2 nM |  |
| O=C(NO)C1(S(=O)(=O)N2CCN(c3ncccn3)CC2)CCOCC1 [Example 107] |  |  | 1190 nM | 22.4 nM |  |
| COc1ccc(N2CCN(S(=O)(=O)C3(C(=O)NO)CCOCC3)CC2)nc1 [Example 108] |  |  | > 10000 nM | 478 nM |  |
| COc1ccc(N2CCN(S(=O)(=O)C3(C(=O)NO)CCOCC3)CC2)nc1 [Example 109] |  |  | > 10000 nM | 472 nM |  |
| CCCCCCCCCc1cnc(N2CCN(S(=O)(=O)C3(C(=O)NO)CCOCC3)CC2)nc1 [Example 110] |  |  | > 10000 nM | 3.23 nM |  |
| CCCCCCCCCc1cnc(N2CCN(S(=O)(=O)C3(C(=O)NO)CCOCC3)CC2)nc1 [Example 111] |  |  | > 10000 nM | 2.58 nM |  |
| O=C(NO)C1(S(=O)(=O)N2CCN(c3ccc(OCCCC(F)(F)F)cc3)CC2)CCN(c2cnccn2)CC1 [Example 112] |  |  | > 10000 nM | 0.27 nM |  |

— patent publication US20050209278A1, “Piperidinyl- and piperazinyl-sulfonylmethyl hydroxamic acids and their use as protease inhibitors” (priority 2002, published 2005)
